Results: patent US10987327B2, “Method for preventing or treating autism spectrum disorders by benzoic acid salt” (EXCELSIOR PHARMATECH LABS, priority 2017, dated 2021)
Several values for one entry are separate records, joined by “and”; a condition that tells them apart may be missing. Equal entries are not always repeated. Entries after “also recorded” stand apart in the source; their conditions may differ.

What was measured:
children with ASD [1] = test: Adaptive Behavior Assessment System-II (ABAS-II), 12-week open label trial; assay type: in vivo, human; settings: sodium benzoate 250 to 500 mg/day, 12 weeks, c2-c7 = child A-F
Procedure: (§1) Six children with ASD were treated with 250 to 500 mg/day of sodium benzoate for 12 weeks. At the baseline and the final (12 weeks) visit, the assessments of receptive and expressive vocabulary test (REVT), core vocabularies gained in the core vocabulary communication system, Chinese child developmental inventory, adaptive behavior assessment system-II (ABAS-II), parenting stress index (PSI), clinical global impression-improvement scale (CGI-I) were arranged.
(§2) This study was a twelve-week open label trial with the aim of gaining experience with sodium benzoate for the treatment of non-communicative children with ASDs. The participants were a convenient sample of outpatients children recruited from the Department of Pediatrics, Kaohsiung Medical University Hospital, Taiwan.
(§3) Six children, including five boys and 1 child with ages between 3-year-7-month to 9-year-10-month old, were assigned to receive a 12-week treatment of sodium benzoate. For children with a body weight equal or more than 15 kg, benzoate was given with 500 mg/day. […]
The ABAS-II is an individually administered, norm-referenced measure of adaptive behaviors (Harrison and Oakland, 2003). […] A Global Adaptive Composite (GAC) score is calculated from all nine skill area scores and presented as a norm-referenced standard score. Results were recorded by the pre- and post-GAC score and Social score.

children with ASD [2] = test: Parenting Stress Index-Chinese version (PSI), 12-week open label trial; assay type: in vivo, human; settings: sodium benzoate 250 to 500 mg/day, 12 weeks; * = above 85 percentile; c2-c7 = child A-F; Pre-Tx A-F: 70, 97.5, 99, 99, 69, 50
Procedure: as §1, §2
as §3, with “mg/day. For children with a body weight less than 15 kg, benzoate was given with 250 mg/day.” for “mg/day.”
Primary caregiver filled out the Chinese version of the parenting stress index (Wen, 2003) which was a validated Chinese version of the original questionnaire developed by Abdin (Abidin, 1986) that measured aspects of parental functioning. […]

children with ASD [3] = test: Clinical Global Impression-Improvement Scale (CGI-I) and clinicians' conclusion, 12-week open label trial; assay type: in vivo, human; settings: for Clinicians' conclusion on improvement of the individual child (text): after 12 weeks, b64-b69 = child A-F in order
Procedure: as §1, §2
(§4) Six children, including five boys and 1 child with ages between 3-year-7-month to 9-year-10-month old, were assigned to receive a 12-week treatment of sodium benzoate. For children with a body weight equal or more than 15 kg, benzoate was given with 500 mg/day. For children with a body weight less than 15 kg, benzoate was given with 250 mg/day. Sodium benzoate was provided by Excelsior Pharmatech Labs (Taiwan).
(§5) All the children entering this study also started to receive communication training using the Core Vocabulary Communication System—Chinese version (the Unlimiter Assistive Technology Engineering Lab, Taiwan). Parents were required to teach their children 40 minutes per day at home using this System. During the 12-week period, the parents were required to bring children back the hospital every 2 weeks. At the baseline and the final (12 weeks) visit, the following assessments were arranged.
The CGI-I is an observer-rated scale that measures the global improvement of illness as compared to condition at admission to the trial (Guy, 1976).

children with ASD [4] = test: Safety observations (activity level, sleep) in the 12-week open label trial; assay type: in vivo, human; settings: for Sleep: child C first 3 days of benzoate usage, child D, child E; for Activity level (untoward activating effect): child D at final assessment, child E in the first two weeks, returned to baseline one month later
Source text: The present disclosure examined the efficacy and safety of sodium benzoate, a D-amino acid oxidase inhibitor, for the treatment of an autism spectrum disorder.
as §2, §4, §5

[5] = test system: early-phase Alzheimer disease; settings: prior trial; cited from earlier work
schizophrenia = settings: prior trial; cited from earlier work

Which “ABAS-S: Parental reported Social Score, Post-Tx” value (children with ASD [1]; Pre-Tx A-F: 71, 51, 57, 61, 46, 45) does the source give for `O=C([O-])c1ccccc1.[Na+]` [sodium benzoate] here?
Its value is 77 and 51 and 50 and 44 and 46 and 45.

And the “ABAS-GCS: Parental reported General Adaptive Composite Score, Post-Tx” value (children with ASD [1]; Pre-Tx A-F: 77, 60, 47, 53, 50, 58)?
The value was 77 and 61 and 46 and 49 and 53 and 57.

And the “PSI % (parenting stress index, derived raw-to-percentile score), Post-Tx” value (children with ASD [2])?
The value was 62% and 93* % and 99* % and 99.9* % and 75% and 72%.

What about the “Clinicians' conclusion on improvement of the individual child (text)” value (children with ASD [3]) of the same molecule?
The value was “much improved; also recorded: no improvement; also recorded: minimally improved”.

And the “Clinicians' conclusion on improvement of the individual child (text)” value (children with ASD [3]; listed as benzoate)?
The value was “minimal improvement”.

And the “Overall effect in teaching of communication skill as observed by the parents and clinicians” value (children with ASD [3]; six children, 12 weeks)?
The value was “beneficial effects”.

What about the “Participants judged to be much improved” value (children with ASD [3]; six children, 12 weeks, child A, B, E) of the same molecule?
The value was “Half of the participants”.

What about the “CGI: Clinical Global Impression-Improvement” value (children with ASD [3]; sodium benzoate 250 to 500 mg/day, 12 weeks, c2-c7 = child A-F) of the same molecule?
Its value is “much ((2) much improved); also recorded: mini-; also recorded: nil ((4) no change)”.

What about the Sleep (children with ASD [4]) of the same molecule?
Its Sleep is “sleep pattern was unaltered”.

And the Sleep (children with ASD [4]; listed as benzoate)?
Its Sleep is “not able to fall asleep at their usual sleep time”.

What about the “Activity level (untoward activating effect)” value (children with ASD [4]) of the same molecule?
Its value is “activity level became even higher; also recorded: activity level increased”.

And the “Activity level (untoward activating effect)” value (children with ASD [4]; listed as benzoic acid salt)?
Its value is “untoward activating effect”.

And the “Clinical symptoms, neurocognitive ability and quality of life” value [5]?
Its value is “Significant improvements”.

What about the “Clinical symptoms, neurocognitive ability and quality of life” value (schizophrenia) of the same molecule?
Its value is “Significant improvements”.
